Measurements as given in ChEMBL document CHEMBL1201862, “PubChem BioAssay data set” (2004).
Several values for one entry are separate records, joined by “and”; a condition that tells them apart may be missing. Identical values can stand only once. Activity calls are given as the source filed them.

Tests used:
[1] = Luminescence Cell-Based Dose Response HTS to Identify Activators of Luciferase Translation or Activity in H4 […] Cells. [Related pubchem assays: 1829 (Project Summary), 1814 (Primary HTS)]; type: functional
H4 = test: Luminescence Cell-Based Dose Response HTS to Identify Activators of 5'UTR Stem-Loop Driven Prion Protein mRNA Translation in H4 Neuroglioblastoma Cells. [Related pubchem assays: 1829 (Project Summary), 1814 (Primary HTS)]; type: functional; details: Homo sapiens
Cytochrome P450 2D6 = Cytochrome P450 2D6 (Homo sapiens, UniProt P10635);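 note: CYP2D6 member of a cytochrome P450 panel assay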
Sequence of Cytochrome P450 2D6 (P10635 whole entry): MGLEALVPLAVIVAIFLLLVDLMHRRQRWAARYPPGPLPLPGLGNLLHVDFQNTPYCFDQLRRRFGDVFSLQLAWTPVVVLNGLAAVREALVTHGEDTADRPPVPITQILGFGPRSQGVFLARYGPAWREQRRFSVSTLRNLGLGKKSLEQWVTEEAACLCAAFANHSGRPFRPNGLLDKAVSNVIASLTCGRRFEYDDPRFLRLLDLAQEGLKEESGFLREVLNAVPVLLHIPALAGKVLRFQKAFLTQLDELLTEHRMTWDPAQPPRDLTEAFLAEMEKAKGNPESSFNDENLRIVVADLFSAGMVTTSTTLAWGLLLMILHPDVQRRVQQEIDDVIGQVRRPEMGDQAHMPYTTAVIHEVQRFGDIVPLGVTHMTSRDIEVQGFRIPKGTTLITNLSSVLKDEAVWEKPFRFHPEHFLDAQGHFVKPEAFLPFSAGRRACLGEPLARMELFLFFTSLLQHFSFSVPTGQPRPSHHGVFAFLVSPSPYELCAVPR

Cytochrome P450 1A2 = target: T1, Cytochrome P450 1A2 (Homo sapiens, UniProt P05177);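 note: PubChem cytochrome P450 panel assay, CYP1A2 panel member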
T1 sequence (P05177 whole entry): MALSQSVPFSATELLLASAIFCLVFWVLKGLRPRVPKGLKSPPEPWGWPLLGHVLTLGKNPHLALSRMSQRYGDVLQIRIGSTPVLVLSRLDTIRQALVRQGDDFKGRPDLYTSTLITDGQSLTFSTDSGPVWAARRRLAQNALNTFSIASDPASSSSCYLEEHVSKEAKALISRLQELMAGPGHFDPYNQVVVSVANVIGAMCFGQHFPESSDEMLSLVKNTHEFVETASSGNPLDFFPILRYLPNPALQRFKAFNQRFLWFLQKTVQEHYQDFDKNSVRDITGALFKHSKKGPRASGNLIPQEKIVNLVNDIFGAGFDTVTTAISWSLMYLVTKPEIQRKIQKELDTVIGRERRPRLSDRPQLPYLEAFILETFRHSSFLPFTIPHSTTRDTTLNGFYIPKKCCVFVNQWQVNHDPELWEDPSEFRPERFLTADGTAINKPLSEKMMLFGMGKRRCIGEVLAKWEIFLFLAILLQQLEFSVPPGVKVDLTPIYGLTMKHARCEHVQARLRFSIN

Cytochrome P450 2C9 = Cytochrome P450 2C9 (Homo sapiens, UniProt P11712)
Sequence of Cytochrome P450 2C9 (P11712 whole entry): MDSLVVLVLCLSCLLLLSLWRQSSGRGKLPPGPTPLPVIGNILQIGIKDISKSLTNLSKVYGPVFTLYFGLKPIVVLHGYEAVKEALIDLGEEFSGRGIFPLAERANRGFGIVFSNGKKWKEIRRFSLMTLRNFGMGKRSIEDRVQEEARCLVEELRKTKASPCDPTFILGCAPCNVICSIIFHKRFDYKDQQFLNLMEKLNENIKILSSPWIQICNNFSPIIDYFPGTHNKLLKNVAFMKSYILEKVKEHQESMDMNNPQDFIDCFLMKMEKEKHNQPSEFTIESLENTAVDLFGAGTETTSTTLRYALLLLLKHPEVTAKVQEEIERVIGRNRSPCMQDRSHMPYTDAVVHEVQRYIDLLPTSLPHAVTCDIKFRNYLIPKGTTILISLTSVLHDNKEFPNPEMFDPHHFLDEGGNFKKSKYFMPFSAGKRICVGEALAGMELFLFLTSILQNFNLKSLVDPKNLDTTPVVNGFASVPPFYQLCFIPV

[2] = target: FAD-linked sulfhydryl oxidase ALR (Homo sapiens, UniProt P55789); test: inhibitors of human ALR sulfhydryl oxidase, dose response, biochemical, H2O2 detection, luminescence, cherry-pick (AID 493248)
Sequence of FAD-linked sulfhydryl oxidase ALR (P55789 whole entry): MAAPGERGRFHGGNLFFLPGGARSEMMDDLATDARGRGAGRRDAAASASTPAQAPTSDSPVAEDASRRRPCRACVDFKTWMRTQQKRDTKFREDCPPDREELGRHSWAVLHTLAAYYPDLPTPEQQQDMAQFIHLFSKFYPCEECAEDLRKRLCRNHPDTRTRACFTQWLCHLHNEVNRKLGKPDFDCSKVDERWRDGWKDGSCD

[3] = target: T2, Heat shock factor protein 1 (Mus musculus, UniProt P38532); test: inhibition of MG132-induced HSE-luciferase signal, confirmation, cell-based, NIH3T3, luminescence, dose retest (AID 2382); type: functional;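 note: NIH3T3 fibroblasts with HSF1-driven luciferase reporter stressed by proteasome inhibitor MG132; luminescence from HSF1-driven luciferase expression after 8 hours of MG132 stress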
T2 sequence (P38532 whole entry): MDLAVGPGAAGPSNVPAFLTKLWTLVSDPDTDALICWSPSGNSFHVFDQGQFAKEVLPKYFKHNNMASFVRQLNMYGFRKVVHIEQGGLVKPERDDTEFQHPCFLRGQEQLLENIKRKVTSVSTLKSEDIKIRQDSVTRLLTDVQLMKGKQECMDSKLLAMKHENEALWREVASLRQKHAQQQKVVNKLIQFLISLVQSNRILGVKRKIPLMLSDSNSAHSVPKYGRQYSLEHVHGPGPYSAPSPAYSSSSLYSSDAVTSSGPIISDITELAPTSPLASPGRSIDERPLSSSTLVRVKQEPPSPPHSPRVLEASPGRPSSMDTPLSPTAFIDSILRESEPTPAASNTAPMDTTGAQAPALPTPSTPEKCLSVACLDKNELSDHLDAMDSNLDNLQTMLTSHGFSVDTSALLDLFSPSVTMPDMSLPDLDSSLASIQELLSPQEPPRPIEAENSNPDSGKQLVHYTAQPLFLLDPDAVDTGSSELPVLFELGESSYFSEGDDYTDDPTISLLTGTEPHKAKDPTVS

Protein skinhead-1 = target: T3, Protein skinhead-1 (Caenorhabditis elegans, UniProt P34707); type: functional
T3 sequence (P34707 whole entry): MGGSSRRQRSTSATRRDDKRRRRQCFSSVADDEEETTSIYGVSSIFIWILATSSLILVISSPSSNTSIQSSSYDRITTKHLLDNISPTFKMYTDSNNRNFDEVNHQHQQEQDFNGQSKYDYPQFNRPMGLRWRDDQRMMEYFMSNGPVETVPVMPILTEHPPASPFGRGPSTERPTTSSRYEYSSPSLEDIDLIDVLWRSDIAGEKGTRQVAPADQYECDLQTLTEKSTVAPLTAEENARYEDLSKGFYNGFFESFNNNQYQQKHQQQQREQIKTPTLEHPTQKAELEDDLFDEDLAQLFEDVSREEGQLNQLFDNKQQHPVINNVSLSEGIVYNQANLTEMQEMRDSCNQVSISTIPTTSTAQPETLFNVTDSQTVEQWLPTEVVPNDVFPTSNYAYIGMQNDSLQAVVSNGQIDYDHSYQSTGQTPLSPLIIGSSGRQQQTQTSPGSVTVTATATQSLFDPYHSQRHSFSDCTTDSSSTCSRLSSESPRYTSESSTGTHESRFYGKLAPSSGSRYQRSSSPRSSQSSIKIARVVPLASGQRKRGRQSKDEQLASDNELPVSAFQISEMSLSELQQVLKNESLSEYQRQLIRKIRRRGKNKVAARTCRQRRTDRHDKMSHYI

Cytochrome P450 3A4 = Cytochrome P450 3A4 (Homo sapiens, UniProt P08684);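 note: CYP3A4 tested as one member of a cytochrome P450 panel screen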
Sequence of Cytochrome P450 3A4 (P08684 whole entry): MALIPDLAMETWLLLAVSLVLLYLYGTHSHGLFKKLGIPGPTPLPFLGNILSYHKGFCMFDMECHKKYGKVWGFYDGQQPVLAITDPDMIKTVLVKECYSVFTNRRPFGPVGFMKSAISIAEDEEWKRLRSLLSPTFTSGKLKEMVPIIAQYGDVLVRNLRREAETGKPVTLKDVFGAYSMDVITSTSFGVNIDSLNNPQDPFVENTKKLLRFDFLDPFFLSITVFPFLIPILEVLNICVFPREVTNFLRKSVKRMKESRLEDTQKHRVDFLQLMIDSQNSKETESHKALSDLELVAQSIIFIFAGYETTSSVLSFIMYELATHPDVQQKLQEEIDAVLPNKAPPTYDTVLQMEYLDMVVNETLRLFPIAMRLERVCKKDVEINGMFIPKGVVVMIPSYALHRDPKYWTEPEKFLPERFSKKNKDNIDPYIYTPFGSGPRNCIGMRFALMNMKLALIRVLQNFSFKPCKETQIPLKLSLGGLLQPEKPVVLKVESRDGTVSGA

[4] = target: T4, Short transient receptor potential channel 4 (Mus musculus, UniProt Q9QUQ5); test: mouse TRPC4 channel inhibitors, dose response, cell-based, HEK293 TRPC4/mu-opioid, Fluo-4 calcium (AID 434942); type: functional;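 note: potency of inhibitors blocking the TRPC4 calcium response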
T4 sequence (Q9QUQ5 whole entry): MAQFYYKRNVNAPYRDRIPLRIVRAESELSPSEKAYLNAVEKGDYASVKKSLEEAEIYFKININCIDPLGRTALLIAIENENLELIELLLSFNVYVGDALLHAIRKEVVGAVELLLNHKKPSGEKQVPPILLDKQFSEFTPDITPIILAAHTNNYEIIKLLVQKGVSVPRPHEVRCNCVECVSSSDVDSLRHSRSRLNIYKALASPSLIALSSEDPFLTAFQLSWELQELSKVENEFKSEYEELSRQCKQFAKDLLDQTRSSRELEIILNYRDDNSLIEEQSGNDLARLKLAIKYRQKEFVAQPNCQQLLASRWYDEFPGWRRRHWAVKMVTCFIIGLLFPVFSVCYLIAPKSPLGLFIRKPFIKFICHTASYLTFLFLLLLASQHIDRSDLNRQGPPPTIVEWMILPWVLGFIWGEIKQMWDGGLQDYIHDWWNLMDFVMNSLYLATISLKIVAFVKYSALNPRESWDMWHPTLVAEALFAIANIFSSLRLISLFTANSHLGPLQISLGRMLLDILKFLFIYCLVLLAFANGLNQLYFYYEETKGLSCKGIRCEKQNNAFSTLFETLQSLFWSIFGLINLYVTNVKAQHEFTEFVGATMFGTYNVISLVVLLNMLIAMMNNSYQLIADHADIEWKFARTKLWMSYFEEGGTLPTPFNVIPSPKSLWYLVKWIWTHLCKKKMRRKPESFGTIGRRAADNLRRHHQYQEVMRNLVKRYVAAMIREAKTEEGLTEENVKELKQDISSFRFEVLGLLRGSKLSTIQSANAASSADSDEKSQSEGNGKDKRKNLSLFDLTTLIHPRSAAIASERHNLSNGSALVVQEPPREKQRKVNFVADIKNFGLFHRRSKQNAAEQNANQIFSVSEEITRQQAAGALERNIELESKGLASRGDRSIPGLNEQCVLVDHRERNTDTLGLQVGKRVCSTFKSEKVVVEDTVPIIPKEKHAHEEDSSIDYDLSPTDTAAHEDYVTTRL

[5] = target: T2, Heat shock factor protein 1; test: HSF1 potentiators in luciferase reporter cells, confirmation, cell-based, NIH3T3, luminescence, dose retest (AID 435004); type: functional;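 note: stress induced by proteasome inhibitor MG132 added 30 min after compound; luciferase reporter driven by HSF1 response element in NIH3T3 cells; actives raise luminescence as potentiators of the MG132 stress response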
[6] = inhibitors of intracellular T. cruzi replication, confirmation, NIH3T3 host cells, beta-gal luminescence (AID 2044); type: functional, cell-based;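 note: intracellular parasites grown in NIH/3T3 mouse fibroblasts as host cells; luminescent beta-galactosidase reporter signal from transgenic T. cruzi replicating inside host cells; inhibitors lower the luminescence signal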
[7] = cytotoxicity toward NIH3T3 fibroblasts, dose response, counter-screen, cell-based, ATP luminescence, mouse fibroblasts (AID 2010); type: functional;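 note: cells exposed to compound for about 90 hours before reading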
Cytochrome P450 2C19 = Cytochrome P450 2C19 (Homo sapiens, UniProt P33261); test: Cytochrome panel assay with activity outcomes. Panel member name: p450-cyp2c19 Compounds with AC50 equal or less than 10 uM are considered active; type: functional; details: read-out: AC50
Sequence of Cytochrome P450 2C19 (P33261 whole entry): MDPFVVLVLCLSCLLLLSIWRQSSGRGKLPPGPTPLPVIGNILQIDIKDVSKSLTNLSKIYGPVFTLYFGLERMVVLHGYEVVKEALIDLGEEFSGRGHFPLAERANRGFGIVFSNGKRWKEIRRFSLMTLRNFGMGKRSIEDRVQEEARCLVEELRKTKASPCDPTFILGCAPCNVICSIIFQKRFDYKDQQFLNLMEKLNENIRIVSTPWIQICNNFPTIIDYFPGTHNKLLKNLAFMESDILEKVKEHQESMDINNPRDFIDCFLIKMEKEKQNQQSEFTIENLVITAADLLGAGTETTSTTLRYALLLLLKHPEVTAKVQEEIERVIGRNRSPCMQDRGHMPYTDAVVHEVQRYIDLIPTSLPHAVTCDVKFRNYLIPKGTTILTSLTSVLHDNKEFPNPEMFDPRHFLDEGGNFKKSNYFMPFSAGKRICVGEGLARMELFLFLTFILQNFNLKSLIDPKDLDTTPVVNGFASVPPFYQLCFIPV

[8] = HEp-2 cell cytotoxicity, dose response, cytotoxicity control for RSV inhibitor project, HTS (AID 2410); type: functional; details: human respiratory syncytial virus

O=C(c1ccccc1-c1nc(-c2ccc(Cl)cc2)no1)N1CCCC1
EC50 [1]: 8.33 µM (active)
EC50 (H4): 99.2 µM (active)

CN1CC[C@]2(C)c3cc(O)ccc3N(C)[C@@H]12
AC50 (Cytochrome P450 2D6): 31.6 µM (inconclusive) and 12.6 µM (inconclusive)
AC50 (Cytochrome P450 1A2): 15.8 µM (inconclusive) and 31.6 µM (inconclusive)
AC50 (Cytochrome P450 2C9): 12.6 µM (inconclusive)

O=c1cc(N2CCCCC2)c(-c2ccccc2)nn1Cc1ccccc1Cl
AC50 (Cytochrome P450 2D6): 28.2 µM (inconclusive)

O=C(c1ccncc1)N1CCC2(CC1)CN(Cc1cc(C(F)(F)F)cc(C(F)(F)F)c1)C2
AC50 (Cytochrome P450 2D6): 31.6 µM (inconclusive)

CC(=O)Oc1ccc(/C=N/NC(=O)C2CCCN2S(=O)(=O)c2ccc(Cl)cc2)cc1 (centres undefined)
AC50 [2]: 12.7 µM (active)

Nc1ccc(NC(=O)c2cccs2)cc1
AC50 [2]: 0.515 µM (active)

Cc1ccc(Oc2ccc(S(=O)(=O)Nc3ccc(C(=O)O)cc3)cc2)cc1
AC50 [2]: 0.714 µM (active)

CCOc1ccc(N2C(=O)c3cccnc3C2=O)cc1
AC50 (Cytochrome P450 2D6): 0.178 µM (inconclusive)
AC50 (Cytochrome P450 2C9): 7.94 µM (inconclusive)

O=C(c1cccs1)N1CCN=C1SCc1cccnc1
AC50 [2]: 1.27 µM (active)

O=C(CNC(=O)c1cccnc1)N/N=C/c1cc(Br)c(O)c(Br)c1
EC50 [3]: > 195 µM (not active)

Cc1ccc(F)cc1N=C(S)NCCc1ccccc1
EC50 [3]: > 195 µM (not active)

O=S(=O)(O)c1ccc(N2N=C(c3ccccc3)CC2c2ccccc2)cc1 (centres undefined)
AC50 [2]: 10.9 µM (active)

S=C(N/N=C1\CCc2ccccc21)NC1CCCCC1
EC50 [3]: 87.7 µM (active)

Cc1ccc(S(=O)(=O)N(C)CC(=O)Nc2ccccc2N2CCCC2)cc1
AC50 [2]: 2.39 µM (active)

O=C(Nc1ccc2c(c1)CN(C(=O)Nc1ccc(F)cc1)CC2)c1ccccn1
IC50 (Protein skinhead-1): > 100 µM (inactive)

CNC(=O)NC(=S)NC(=O)c1ccccc1Cl
EC50 [3]: > 195 µM (not active)

COc1cccc(NC(=O)N2CCCC2C(=O)NC(C)C)c1 (centres undefined)
EC50 [3]: 152 µM (active)

CCC(C)(C)NC(=O)C(c1cccn1C)N(C(=O)Cn1nnc2ccccc21)c1ccc(OC)cc1OC (centres undefined)
IC50 (Protein skinhead-1): > 100 µM (inactive)

COc1ccc2[nH]cc(CCNc3cc(-c4ccccc4C(F)(F)F)ncn3)c2c1
AC50 (Cytochrome P450 2D6): 20 µM (inconclusive)
AC50 (Cytochrome P450 2C9): 1 µM (inconclusive)

COc1ccc(-n2c(=O)c(-c3cc(F)cc(F)c3)nc3cnc(N4CCOCC4)nc32)cc1
AC50 (Cytochrome P450 2D6): 20 µM (inconclusive)
AC50 (Cytochrome P450 1A2): 15.8 µM (inconclusive)
AC50 (Cytochrome P450 3A4): 15.8 µM (inconclusive)

COC(=O)c1cc(S(=O)(=O)NCCc2ccccc2)c[nH]1
EC50 [3]: > 195 µM (not active)

CN(C)CCN1C(=O)C2C(C(=O)Nc3cc(Cl)cc(Cl)c3)C3C=CC2(O3)C1C(=O)NC1CCCCC1 (centres undefined)
EC50 [4]: 6.68 µM (active)
EC50 [5]: > 260 µM (inactive)

O=C(CC(c1ccccc1)c1ccccc1)NCC1CCCO1 (centres undefined)
AC50 (Cytochrome P450 2D6): 11.2 µM (inconclusive)
AC50 (Cytochrome P450 3A4): 22.4 µM (inconclusive)

Fc1ccccc1N=C(S)NN(Cc1ccccc1)c1ccccc1
IC50 (Protein skinhead-1): > 100 µM (inactive)

COc1ccc(O)c(-c2c(C)n[nH]c2-c2ccc(Cl)cc2)c1
EC50 [3]: > 195 µM (not active)

CCOC(=O)C1=C(CSc2nc(-c3ccccc3)ccc2C#N)OC(N)=C(C#N)C1c1ccccc1 (centres undefined)
IC50 (Protein skinhead-1): > 100 µM (inactive)

COCCn1c(SCc2ccc(OC)c(F)c2)nc2ccccc2c1=O
EC50 [6]: 2.24 µM (active)
EC50 [7]: 31.8 µM (active)
EC50 [4]: 2.99 µM (active)

COc1ccc2c(c1)OC/C(=C/c1cccs1)C2=O
IC50 (Protein skinhead-1): 28.7 µM (active)

Cc1ccc(S(=O)(=O)Nc2nc(C)c(NC(=O)Nc3ccc(Cl)cc3Cl)s2)cc1
AC50 (Cytochrome P450 2D6): 28.2 µM (inconclusive)

CCC1CCc2c(c3ccccc3[nH]c2=O)O1 (centres undefined)
AC50 (Cytochrome P450 2C19): 17.8 µM (inconclusive)
AC50 (Cytochrome P450 2D6): 39.8 µM (inconclusive)

CN(/C(=N\S(=O)(=O)c1ccccc1)C(F)(F)F)c1ccccc1
EC50 [3]: > 195 µM (not active)

CCCN1C2CCCC1CC(NC(=O)c1ccc(F)cc1)C2 (centres undefined)
IC50 (Protein skinhead-1): > 100 µM (inactive)

O=C(Nc1ccccc1)c1c[nH]cn1
IC50 (Protein skinhead-1): > 100 µM (inactive)

Fc1ccc(Cn2nnc(-c3ccc(CN4CCOCC4)cc3)n2)cc1
IC50 (Protein skinhead-1): 6.09 µM (active)

O=c1c2ccccc2nc(-c2ccc(Br)cc2)n1Cc1ccccc1
AC50 (Cytochrome P450 2D6): 25.1 µM (inconclusive)

CN(C)c1nccc(N(Cc2ccccc2)Cc2ccccc2)c1C#N
AC50 (Cytochrome P450 2D6): 10 µM (inconclusive)

CC(NS(=O)(=O)c1ccc(OCC(=O)N2CCOCC2)c(Cl)c1)c1ccccc1 (centres undefined)
IC50 (Protein skinhead-1): > 100 µM (inactive)

COc1ccc(NC(=O)C2Cc3ccccc3C(=O)O2)cc1 (centres undefined)
EC50 [3]: > 195 µM (not active)

CC(=O)Nc1ccc(-c2nnc(SCC(=O)c3ccc4c(c3)Cc3ccccc3-4)n2C)cc1
AC50 (Cytochrome P450 2C19): 6.31 µM (inconclusive)
AC50 (Cytochrome P450 2D6): 14.1 µM (inconclusive)

CC[n+]1c(/C=C/c2cc([N+](=O)[O-])ccc2O)ccc2ccccc21
CC50 [8]: 36.9 µM (active)
EC50 [3]: > 195 µM (not active)
